Experimental data: patent publication US6177253A, “Screening methods for the identification of anti-HIV compounds employing a cyclosporine-specific monoclonal antibody that cross-reacts with HIV-1 p24” (priority 1998, dated 2001)
“Also recorded” adds a separate entry of the source.

Key:
[1] = system: R575; experiment: Inhibition RIA of [3H]CsA binding to rabbit anti-cyclosporine antibodies R575; details: for affinity group for the rabbit antibodies: inhibition RIA, in words; for IC50: read-out: IC50 = Concentration for 50% inhibition, inhibition of [3H] dihydro CsA binding to rabbit antibody R575
Experimental: Serum antibodies were detected by a modification of the published radioimmunoassay (5, 12). […] Binding by diluted preimmune serum was used as a control. Free and bound ligand were separated with charcoal supplied by Sandoz according to their procedure. […] The cyclosporin derivatives were dissolved in 100% ethanol at a concentration of 5.0 mg/ml, stored at -20° C., and diluted to final concentrations of 0.27 nM to 2.7 μM in Sandoz buffer B for the inhibition experiments.

[2] = system: H4 1.3; experiment: ELISA inhibition by singly modified Cs-derivatives, McAb H4 1.3; format: binding, BALB/c mice; details: group II; D-Lys^8 -Cs-BSA coating
Experimental: (§1) A second ELISA Procedure used conjugates of D-Lys^8 -Cs-BSA and Thr^2 -Cs-BSA for coating (Queeniaux et al., 1987b). An indirect detection system consisting of rabbit anti-mouse Ig followed by alkaline phosphates-conjugated goat anti-rabbit IgG was performed as previously described (Queenlaux et al., 1987b).
(§2) The binding of the 22 McAbs to these two Cs-BSA conjugates was also found to correlate well with their fine specificity patterns, as characterized with a set of 28-36 Cs derivatives. Typical ELISA curves showing McAb binding either to D-Lys^8 -Cs-BSA (panel A) or to Thr^2 -Ca-BSA (panel B) and inhibited by Cs or Cs derivatives are shown in FIGS. 8A-8B, D-Lys^8 -Cs-BSA was subsequently used for coating in the inhibition experiments, except for those McAbs binding selectively to Thr^2 -Cs-BSA (see Table 4 and FIGS. 7A-7C). An example of the binding of 26 Cs derivatives by McAbs belonging to each of the five specificity groups mentioned above is reported in Table 5. The results are expressed as the difference of IC50 (in log10) between the Cs derivatives and Cs. All Cs-derivatives used in this study were selected for having a conserved peptide ring conformation compared with CsA (as determined in NMR or X-ray diffraction).

[3] = system: C4 2.2; experiment: ELISA inhibition by singly modified Cs-derivatives, McAb C4 2.2; format: binding, BALB/c mice; details: group V; McAb binds selectively to Thr^2 -Cs-BSA coating
Experimental: as §1, §2

[4] = system: G7 1.1; experiment: ELISA inhibition by singly modified Cs-derivatives, McAb G7 1.1; format: binding, BALB/c mice; details: group I; McAb binds selectively to Thr^2 -Cs-BSA coating
Experimental: as §1, §2

[5] = system: H6 1.5; experiment: ELISA inhibition by singly modified Cs-derivatives, McAb H6 1.5; format: binding, BALB/c mice; details: group III; D-Lys^8 -Cs-BSA coating
Experimental: as §1, §2

[6] = system: B11 1.4; experiment: ELISA inhibition by singly modified Cs-derivatives, McAb B11 1.4; format: binding, BALB/c mice; details: group IV; D-Lys^8 -Cs-BSA coating
Experimental: as §1, §2

[7] = single break in a peptide bond by N O shift; cited from earlier work

| Structure (SMILES) | affinity group for the rabbit antibodies [1] | IC50 [1] | log10 difference in the concentrations of Cs-derivatives and unmodified Cs required to achieve 50% inhibition in ELISA, McAb H4 1.3 [2] | log10 difference in the concentrations of Cs-derivatives and unmodified Cs required to achieve 50% inhibition in ELISA, McAb C4 2.2 [3] | log10 difference in the concentrations of Cs-derivatives and unmodified Cs required to achieve 50% inhibition in ELISA, McAb G7 1.1 [4] | log10 difference in the concentrations of Cs-derivatives and unmodified Cs required to achieve 50% inhibition in ELISA, McAb H6 1.5 [5] | log10 difference in the concentrations of Cs-derivatives and unmodified Cs required to achieve 50% inhibition in ELISA, McAb B11 1.4 [6] | other results |
| --- | --- | --- | --- | --- | --- | --- | --- | --- |
| C/C=C/C[C@@H](C)[C@@H](O)[C@H]1C(=O)N[C@@H]([C@@H](C)O)C(=O)N(C)CC(=O)N(C)[C@@H](CC(C)C)C(=O)N[C@@H](C(C)C)C(=O)N(C)[C@@H](CC(C)C)C(=O)N[C@@H](C)C(=O)N[C@H](C)C(=O)N(C)[C@@H](CC(C)C)C(=O)N(C)[C@@H](CC(C)C)C(=O)N(C)[C@@H](C(C)C)C(=O)N1C [CsC] | Moderate affinities | 11.5 nM | – | – | – | – | – | affinity group for the rabbit antibodies ([1]; listed as CSC): moderate affinities |
| C/C=C/C[C@@H](C)[C@@H](O)[C@H]1C(=O)N[C@@H](C(C)C)C(=O)N(C)CC(=O)N(C)[C@@H](CC(C)C)C(=O)N[C@@H](C(C)C)C(=O)N(C)[C@@H](CC(C)C)C(=O)N[C@@H](C)C(=O)N[C@H](C)C(=O)N(C)[C@@H](CC(C)C)C(=O)N(C)[C@@H](CC(C)C)C(=O)N(C)[C@@H](C(C)C)C(=O)N1C [CsD] | high affinity; also recorded: bind best | 4.3 nM | – | – | – | – | – | – |
| C/C=C/C[C@@H](C)[C@@H](O)[C@H]1C(=O)N[C@@H](CC)C(=O)N(C)[C@H](C)C(=O)N(C)[C@@H](CC(C)C)C(=O)N[C@@H](C(C)C)C(=O)N(C)[C@@H](CC(C)C)C(=O)N[C@@H](C)C(=O)N[C@H](C)C(=O)N(C)[C@@H](CC(C)C)C(=O)N(C)[C@@H](CC(C)C)C(=O)N(C)[C@@H](C(C)C)C(=O)N1C [Sar^3 D-MeAla] | – | – | 1.3 log10 | 1.2 log10 | 1.2 log10 | 1.4 log10 | < 0.0 log10 | – |
| C/C=C/C[C@@H](C)[C@@H](O)[C@H]1C(=O)N[C@@H](CC)C(=O)N(C)C(COC(C)=O)C(=O)N(C)[C@@H](CC(C)C)C(=O)N[C@@H](C(C)C)C(=O)N(C)[C@@H](CC(C)C)C(=O)N[C@@H](C)C(=O)N[C@H](C)C(=O)N(C)[C@@H](CC(C)C)C(=O)N(C)[C@@H](CC(C)C)C(=O)N(C)[C@@H](C(C)C)C(=O)N1C (some centres unmarked) [Sar^3 O-Acetyl-MeSer] | – | – | 2.1 log10 | 1.5 log10 | 1.2 log10 | 2.2 log10 | 0.4 log10 | – |
| C/C=C/C[C@@H](C)[C@@H](O)[C@H]1C(=O)N[C@@H](CC)C(=O)N(C)CC(=O)N(C)[C@@H](CC(C)C)C(=O)N(C)[C@@H](CC(C)C)C(=O)N(C)[C@@H](CC(C)C)C(=O)N[C@@H](C)C(=O)N[C@H](C)C(=O)N(C)[C@@H](CC(C)C)C(=O)N(C)[C@@H](CC(C)C)C(=O)N(C)[C@@H](C(C)C)C(=O)N1C [Val^5 MeLeu] | – | – | 1.2 log10 | < 0.0 log10 | 1.0 log10 | 0.3 log10 | 0.0 log10 | – |
| C/C=C/C[C@@H](C)[C@@H](O)[C@H]1C(=O)N[C@@H](CC)C(=O)N(C)CC(=O)N(C)[C@@H](CC(C)C)C(=O)N[C@@H](CCSC)C(=O)N(C)[C@@H](CC(C)C)C(=O)N[C@@H](C)C(=O)N[C@H](C)C(=O)N(C)[C@@H](CC(C)C)C(=O)N(C)[C@@H](CC(C)C)C(=O)N(C)[C@@H](C(C)C)C(=O)N1C [Val^5 Met] | – | – | 1.5 log10 | < 0.0 log10 | < 0.0 log10 | < 0.0 log10 | 0.0 log10 | – |
| C/C=C/C[C@@H](C)[C@@H](O)[C@H]1C(=O)N[C@@H](CCC)C(=O)N(C)CC(=O)N(C)[C@@H](CC(C)C)C(=O)N[C@@H](CCC)C(=O)N(C)[C@@H](CC(C)C)C(=O)N[C@@H](C)C(=O)N[C@H](C)C(=O)N(C)[C@@H](CC(C)C)C(=O)N(C)[C@@H](CC(C)C)C(=O)N(C)[C@@H](C(C)C)C(=O)N1C [Val^5 NVa^2, Nva^5] | – | – | 1.2 log10 | 0.1 log10 | 0.5 log10 | 0.2 log10 | 0.2 log10 | – |
| C/C=C/C[C@@H](C)[C@@H](O)[C@H]1C(=O)N[C@@H](CC)C(=O)N(C)CC(=O)N(C)[C@@H](CC(C)C)C(=O)N[C@@H](C(C)C)C(=O)N(C)[C@@H](CC(C)C)C(=O)N[C@@H](C)C(=O)N[C@H](C)C(=O)N(C)[C@@H](CC(C)C)C(=O)N(C)[C@@H](CC(C)C)C(=O)N(C)[C@@H]([C@@H](C)CC)C(=O)N1C [compound 032] | high affinity; also recorded: bind best | 7 nM | – | – | – | – | – | – |
| C/C=C/C[C@@H](C)[C@@H](O)[C@H]1C(=O)N[C@@H](CC)C(=O)N(C)CC(=O)N(C)[C@@H](CC(C)C)C(=O)N[C@@H](C(C)C)C(=O)N(C)[C@H](C)C(=O)N[C@@H](C)C(=O)N[C@H](C)C(=O)N(C)[C@@H](CC(C)C)C(=O)N(C)[C@@H](CC(C)C)C(=O)N(C)[C@@H](C(C)C)C(=O)N1C [compound 039] | Moderate affinities | 18 nM | – | – | – | – | – | – |
| C/C=C/C[C@@H](C)[C@@H](OC(C)=O)[C@H]1C(=O)N[C@@H](CC)C(=O)N(C)CC(=O)N(C)[C@@H](CC(C)C)C(=O)N[C@@H](C(C)C)C(=O)N(C)[C@@H](CC(C)C)C(=O)N[C@@H](C)C(=O)N[C@H](C)C(=O)N(C)[C@@H](CC(C)C)C(=O)N(C)[C@@H](CC(C)C)C(=O)N(C)[C@@H](C(C)C)C(=O)N1C [compound 243] | high affinity; also recorded: bind best | 6 nM | – | – | – | – | – | – |
| C/C=C/C[C@@H](C)[C@@H](O)[C@H]1C(=O)N[C@@H](CC)C(=O)N2CCC[C@H]2C(=O)N(C)[C@@H](CC(C)C)C(=O)N[C@@H](C(C)C)C(=O)N(C)[C@@H](CC(C)C)C(=O)N[C@@H](C)C(=O)N[C@H](C)C(=O)N(C)[C@@H](CC(C)C)C(=O)N(C)[C@@H](CC(C)C)C(=O)N(C)[C@@H](C(C)C)C(=O)N1C [compound 582] | Moderate affinities | 12 nM | – | – | – | – | – | – |
| C/C=C/C[C@@H](C)[C@@H](O)[C@H]1C(=O)N[C@@H]([C@@H](C)OC(C)=O)C(=O)N(C)CC(=O)N(C)[C@@H](CC(C)C)C(=O)N[C@@H](C(C)C)C(=O)N(C)[C@@H](CC(C)C)C(=O)N[C@@H](C)C(=O)N[C@H](C)C(=O)N(C)[C@@H](CC(C)C)C(=O)N(C)[C@@H](CC(C)C)C(=O)N(C)[C@@H](C(C)C)C(=O)N1C [compound 665] | high affinity; also recorded: bind best | 4.8 nM | – | – | – | – | – | – |
| C/C=C/C[C@@H](C)[C@@H](O)[C@H]1C(=O)N[C@@H](CC)C(=O)N(C)CC(=O)N(C)[C@@H](CC(C)C)C(=O)N[C@@H](C(C)C)C(=O)N(C)[C@@H](CC(C)C)C(=O)N[C@@H](C)C(=O)N[C@H](COC(C)(C)C)C(=O)N(C)[C@@H](CC(C)C)C(=O)N(C)[C@@H](CC(C)C)C(=O)N(C)[C@@H](C(C)C)C(=O)N1C [compound 717] | inhibits very poorly; also recorded: low affinity | 2700 nM | – | – | – | – | – | inhibition of [^3 H] CsA binding obtainable ([1]; maximal inhibition): more than 50% |
| C/C=C/C[C@@H](C)[C@H]1OC(=O)[C@H](C(C)C)N(C)C(=O)[C@H](CC(C)C)N(C)C(=O)[C@H](CC(C)C)N(C)C(=O)[C@@H](C)NC(=O)[C@H](C)NC(=O)[C@H](CC(C)C)N(C)C(=O)[C@H](C(C)C)NC(=O)[C@H](CC(C)C)N(C)C(=O)CN(C)C(=O)[C@H](CC)NC(=O)[C@H]1NC [iso-CsA] | – | – | – | – | – | – | – | biological activity [7]: loss of activity |
